In general, MIC refers to the lowest concentration found to suppress growth. A lower MIC goes with a more susceptible organism.

These results are taken from patent US9561193B2, “Oral and skin care compositions based on a 3,3-Dialkyl-1,1-biphenyl-2,2-diol or a 3,3-Dialkenyl-1,1-biphenyl-2,2-diol” (Colgate-Palmolive Company, priority 2011, dated 2017).

Molecules are shown by their SMILES. Values after ≈ are worked out from the molar mass of the structure shown.

Holding throughout (format): cell-based
Series [1] relates to Prostaglandin E2 (PGE2). The experiment in a line: PGE2 EIA anti-inflammatory assay in IL-1β or HKPG stimulated cells. The note with it: PGE2 level; human embryo palatal mesenchyme cells; IL-1β (10 ng/ml) or heat-killed P. gingivalis (HKPG); overnight incubation. As to the method:
Prostaglandin E2 (PGE2) is a key mediator of periodontal inflammation and its expression is a well-established as a biomarker associated with gingival inflammation. […] The data of Table 9 were obtained generally according to the following method: A 100 μL aliquot of DMEM media (Dulbecco's Modified Eagle Medium) (Invitrogen, Carlsbad, Calif.) containing either IL-1β (10 ng/ml) (Roche Applied Science, Indianapolis Ind.) or 10^8 heat-killed Prophynomonas gingivalis (HKPG) into each well of a sterile 96-well plate (“mirror plate”). An additional 98 μl aliquot of DMEM media containing either IL-1β or HKPG was added to the first well in each row. […]
Each well of a second plate containing growing cells (human embryo palatal mesenchyme cells, catalog no. CRL-1486; ATCC, Manassas, Va.) is washed twice with PBS, after which any remaining media is aspirated from the wells. […] An additional 30 μL aliquot of media is added to each well to adjust the final volume to 100 μL and the level of PGE2 determined using a detection kit generally according to the manufacturer's instructions (PEG2-EIA Kit, catalogue no. 901-001; Assay Designs Inc, Ann Arbor Mich.) and software (GraphPad Prism, GraphPad Software, Inc., San Diego Calif.).

For series [2], the system named is Escherichia coli (E. coli). The experiment in a line: Short Interval Kill Test (SIKT). Particulars: 1 minute exposure. As to the method: (§1) Compound (3) was evaluated for its antibacterial efficacy against representative skin bacteria such as Staphylococcus aureus (S. aureus), Corynebacterium minutissimum (C. minutissimum), and Escherichia coli (E. coli). Minimum Inhibitory Concentration (MIC), and a Short Interval Kill Test (SIKT) were performed, and the results are described in Table 6 and Table 7 (below).
(§2) The SIKT test determines the kill effect of a test compound at a predetermined exposure time. The SIKT values presented below in Table 7, were obtained generally according to the following method: An aliquot of Compound (3) in a volume of 1.2 mL is transferred into a sterile test tube, to which 0.2 mL of a freshly prepared bacterial suspension (OD adjusted to 0.1 at 620 nm) is added and gently mixed. The reaction is neutralized at the 1 minute point by adding a neutralizing broth. The resulting mixture is then further diluted (serial ten-fold dilutions) with Letheen broth and an aliquot of each dilution is plated on MCA (Microbial Count Agar) plates for viable bacterial count.

Series [3] has as its system Staphylococcus aureus (S. aureus). The experiment in a line: Short Interval Kill Test (SIKT). Particulars: 1 minute exposure. As to the method: as §1, §2
Series [4] deals with A. viscosus. Put plainly: Minimum Inhibitory Concentration test, oral bacteria. Particulars: Actinomyces viscosus, trypticase soy broth, 18-24 hours of incubation. Here is the method:
(§3) Table 1 (below) describes the antibacterial efficacy (Minimum Inhibitory Concentration test) of Compound (3) [drawing 5] which is an exemplary compound of the present invention, against common oral bacteria, A. viscosus, S. mutans, S. oralis, S. sanguis, and L. casei. Minimum Inhibitory Concentration values are determined generally according to the following method: A series of two-fold dilutions of compound (3) in trypticase soy broth (Catalog No. 211768; Becton Dickinson, Franklin Lakes N.J.) was prepared in a 96 well plate and a constant amount of bacteria was then added to each well. After 18-24 hours of incubation, bacterial growth was measured with a Spectrophotometric Micro-plate Reader (Powerwave 5×, BioTEK, Winooski Vt.) and the MIC values were determined Results are provided in Table 1: […]

The subject of series [5] is L. casei. Described as above. Particulars: Lacticaseibacillus casei, trypticase soy broth, 18-24 hours of incubation. Here is the method:
as §3

For series [6], the system named is S. mutans. The description is as above. Particulars: Streptococcus mutans, trypticase soy broth, 18-24 hours of incubation. As to the method:
as §3

The subject of series [7] is S. oralis. The series is described as above. The note with it: Streptococcus oralis, trypticase soy broth, 18-24 hours of incubation. Here is the method:
as §3

The test system of series [8] is S. sanguis. The series is described as above. Particulars: trypticase soy broth, 18-24 hours of incubation. Here is the method: as §3
The subject of series [9] is Escherichia coli (E. coli). Put plainly: Minimum Inhibitory Concentration (MIC), skin bacteria. The note with it: 18-24 hours of incubation. Here is the method: (§4) Compound (3) was evaluated for its antibacterial efficacy against representative skin bacteria such as Staphylococcus aureus (S. aureus), Corynebacterium minutissimum (C. minutissimum), and Escherichia coli (E. coli). Minimum Inhibitory Concentration (MIC), and a Short Interval Kill Test (SIKT) were performed, and the results are described in Table 6 and Table 7 (below). MIC values against three common skin bacteria were determined for Compound (3) using the following method: A series of two-fold dilutions of Compound (3) was prepared in a 96 well plate and a constant amount of bacteria was added to each well. After 18-24 hours of incubation, bacterial growth was measured with a Spectrophotometric Micro-plate Reader and the MIC values were determined.

Series [10] has as its system Staphylococcus aureus (S. aureus). Described as above. The note with it: 18-24 hours of incubation. As to the method: as §4
In series [11] the test system is Corynebacterium minutissimum (C. minutissimum). The series is described as above. Particulars: 18-24 hours of incubation. As to the method: as §4

`CCCc1cccc(-c2cccc(CCC)c2O)c1O` [Compound (3), [1,1-Biphenyl]-2,2′-diol,3,3′ dipropyl] had an IC50 in series [1] of 0.25 ppm. For the same compound, the “SIKT (% Reduction in viable count in 1 min.)” value in [2] is listed as 99.55%; in series [3] it was 99.99%. The MIC in [4] was 3.9 µg/mL (≈ 14.4 µM); in series [5], 7.8 µg/mL (≈ 28.8 µM); in series [6], 7.8 µg/mL (≈ 28.8 µM); in series [7], 7.8 µg/mL (≈ 28.8 µM); in series [8] it was 3.9 µg/mL (≈ 14.4 µM); in series [9], 62.5 µg/mL (≈ 231 µM). Besides, the minimal inhibitory concentration (MIC) is 31.2 µg/mL (≈ 116 µM) in [10] and 62.5 µg/mL (≈ 231 µM) in series [11].

In series [1], `C=CCc1ccc(O)c(-c2cc(CC=C)ccc2O)c1` [Magnolol, reference compound] registered an IC50 of 0.40 ppm.
